Assay results reported in patent publication US20200061062A1, “INHIBITORS OF HUMAN PHOSPHATIDYLINOSITOL 3-KINASE DELTA” (ICOS Corporation, priority 2000, published 2020).
Like-named read-outs stand apart in the source and are kept apart here.

Key:
human neutrophils [1] = experiment: Superoxide production from neutrophils (cytochrome C reduction); format: cell-based
Experimental: Aliquots (8 mL) of heparinized blood from healthy volunteers were layered on 3 mL cushions of 7.3% FICOLL® (Sigma, St. Louis, Mo.) and 15.4% HYPAQUE® (Sigma) and centrifuged at 900 rpm for 30 min at room temperature in a table top centrifuge (Beckman). The neutrophil-rich band just above the FICOLL®-HYPAQUE® cushion was collected and washed with Hanks' balanced salt solution (HBSS) containing 0.1% gelatin. Residual erythrocytes were removed by hypotonic lysis with 0.2% NaCl. The neutrophil preparation was washed twice with HBSS containing 0.1% gelatin and used immediately.
Superoxide generation is one of the hallmarks of neutrophil activation. A variety of activators potentiate superoxide generation by neutrophils. The effect of the PI3Kδ inhibitor D-000 on superoxide generation by three different agonists: TNF1α, IgG, and fMLP, each representing separate classes of activator, was measured. Superoxide generated by the neutrophils was measured by monitoring the change in absorbance upon reduction of cytochrome C by modification of the method described by Green et al., (pp. 14.5.1-14.5.11 in Supp. 12, Curr Protocols Immunol (Eds., Colligan et al.) (1994)), as follows. Individual wells of a 96-well plate were coated overnight at 4° C. with 50 μL of 2 mg/mL solution of human fibrinogen or IgG. The wells were washed with PBS and the following reagents were added to each well: 50 μL of HBSS or superoxide dismutase (1 mg/mL), 50 μL of HBSS or TNF1α (50 ng/mL), 50 μL cytochrome C (2.7 mg/mL), and 100 μL of purified human neutrophil suspension ([…] cells/mL). The plate was centrifuged for 2 min at 200 rpm and absorbance at 550 nm was monitored for 2 hr. To measure the relative amounts of superoxide generated, values obtained from the superoxide dismutase-containing wells were subtracted from all, and normalized to the values obtained from the wells without any inhibitor.

human neutrophils [2] = experiment: Bactericidal capacity of neutrophils (Staphylococcus aureus killing); format: cell-based; details: FIG. 6; versus DMSO control
Text: Given that the PI3Kδ inhibitor D-000 affects certain neutrophil functions detailed above, it was of interest to see whether the compound affects neutrophil-mediated bacterial killing. The effect of D-000 on neutrophil-mediated Staphylococcus aureus killing was studied according to the method described by Clark and Nauseef (pp. 7.23.4-7.23.6 in Vol. 2, Supp. 6, Curr Protocols Immunol (Eds., Colligan et al.) (1994)). Purified human neutrophils (5×10^6 cells/mL) (treated with either DMSO or a serial dilution of D-000 in DMSO) were mixed with autologous serum. Overnight-grown S. aureus cells were washed, resuspended in HBSS, and added to the serum-opsonized neutrophils at a 10:1 ratio. Neutrophils were allowed to internalize the bacteria by phagocytosis by incubation at 37° C. for 20 min. The noninternalized bacteria were killed by 10 units/mL lysostaphin at 37° C. for 5 min and the total mixture was rotated at 37° C. Samples were withdrawn at various times for up to 90 min and the neutrophils were lysed by dilution in water. Viable bacteria were counted by plating appropriate dilutions on trypticase-soy-agar plate and counting the S. aureus colonies after overnight growth.

human B cells = experiment: Antibody production by human B cells (IgG and IgM ELISA); format: cell-based; details: B-cell, IL-2 and PANSORBIN stimulation
Experimental: Heparinized blood (200 mL) from healthy volunteers was mixed with an equal volume of D-PBS, layered on 10×10 mL FICOLL-PAQUE® (Pharmacia), and centrifuged at 1600 rpm for 30 min at room temperature. Peripheral blood mononuclear cells (PBMC) were collected from the FICOLL®/serum interface, overlayed on 10 mL fetal bovine serum (FBS) and centrifuged at 800 rpm for 10 min to remove platelets. After washing, cells were incubated with DYNAL® Antibody Mix (B cell kit) (Dynal Corp., Lake Success, N.Y.) for 20 min at 4-8° C. Following the removal of unbound antibody, PBL were mixed with anti-mouse IgG coated magnetic beads (Dynal) for 20 min at 4-8° C. with gentle shaking followed by elimination of labeled non-B cells on the magnetic bead separator. This procedure was repeated once more. The B cells were resuspended in RPMI-1640 with 10% FBS, and kept on ice until further use.
To study antibody production, B cells were aliquoted at 50-75×10^3 cells/well into 96-well plate with or without inhibitor, to which IL-2 (100 U/mL) and PANSORBIN® (Calbiochem) Staphylococcus aureus cells (1:90,000) were added. […] Samples from each condition (in triplicate) were removed, and analyzed for IgG and IgM, as measured by ELISA. […] Color development was stopped by H2SO4 solution, and plates were read on an ELISA plate reader.

basophils = experiment: Basophil histamine release assay; format: cell-based, human
Experimental: Assessment of the effect of a compound of the invention on basophil function was tested using a conventional histamine release assay, generally in accordance with the method described in Miura et al., J Immunol, 162:4198-206 (1999). Briefly, enriched basophils were preincubated with test compounds at several concentrations from 0.1 nM to 1,000 nM, for 10 min at 37° C. Then, polyclonal goat antihuman IgE (0.1 μg/mL) or fMLP was added, and allowed to incubate for an additional 30 min. Histamine released into the supernatant was measured using an automated fluorometric technique. Two compounds were tested, shown below.

| SMILES | IC50 (human neutrophils [1]; Homo sapiens, Neutrophil, TNF stimulus, FIG. 2, read-out: Concentration reducing TNF-induced superoxide generation to its half-maximal value) [µM] | Effect on superoxide generation induced by IgG (human neutrophils [1]; IgG stimulus, at 10 μM, FIG. 2) | Effect on fMLP-induced superoxide generation (human neutrophils [1]; fMLP stimulus, FIG. 3) | Effect on neutrophil-mediated killing of S. aureus (human neutrophils [2]) | IC50 (human B cells; FIG. 7, read-out: Half-maximal inhibition of IgG production) [µM] | IC50 (human B cells; FIG. 7, read-out: Half-maximal inhibition of IgM production) [µM] | Efficacy in the inhibition of histamine release compared with D-026 (basophils; anti-IgE) | Effect on histamine release, basophils stimulated with fMLP (basophils; fMLP stimulus) |
| --- | --- | --- | --- | --- | --- | --- | --- | --- |
| O=c1c2ccccc2nc(CSc2ncnc3[nH]cnc23)n1-c1ccccc1Cl [Compound D-000, 3-(2-chlorophenyl)-2-(9H-purin-6-ylsulfanylmethyl)-3H-quinazolin-4-one] | ~3 | did not have any effect | inhibited | does not significantly affect | ~7 | ~1 |  |  |
| O=c1c2ccccc2nc(CSc2ncnc3[nH]ncc23)n1-c1ccccc1Cl [Compound D-999, 3-(2-Chlorophenyl)-2-(1H-pyrazolo[3,4-d]pyrimidin-4-ylsulfanylmethyl)-3H-quinazolin-4-one, reference compound] |  |  |  |  |  |  | less efficacious | Neither compound elicited any effect |
